Source: ChEMBL document CHEMBL2311386, “Alkyl substituted 2'-benzoylpyridine thiosemicarbazone chelators with potent and selective anti-neoplastic activity: novel ligands that limit methemoglobin formation” (J Med Chem, 2013)

Legend:
[1] = Therapeutic index, ratio of IC50 for human MRC5 cells to IC50 for human SK-N-MC cells; assay type: cell-based; conditions: MRC5 cells and SK-N-MC cells, read-out: Ratio IC50
SK-N-MC [2] = test: Cytotoxicity against human SK-N-MC cells assessed as growth inhibition after 72 hrs by MTT assay; assay type: functional, cell-based
[3] = Induction of ascorbate oxidation in citrate buffer in presence of 10 uM Fe3+ at 1 to 60 uM; assay type: physicochemical
[4] = Toxicity in human RBC lysates assessed as methemoglobin formation at 25 uM after 3 hrs relative to control; parameters: species or system Lysate; conditions: erythrocyte
[5] = Toxicity in human RBC lysates assessed as methemoglobin formation using Fe(compound)2 complex at 25 uM after 3 hrs relative to control; parameters: species or system Lysate; conditions: erythrocyte
[6] = Toxicity in intact human RBC assessed as methemoglobin formation at 25 uM after 3 hrs relative to untreated control; assay type: cell-based; conditions: erythrocyte
MRC5 = test: Cytotoxicity against human MRC5 cells assessed as growth inhibition after 72 hrs by MTT assay; assay type: cell-based; conditions: MRC5, 72 h
[7] = Toxicity in intact human RBC assessed as methemoglobin formation using Fe(compound)2 complex at 25 uM after 3 hrs relative to untreated control; assay type: cell-based; conditions: erythrocyte
SK-N-MC [8] = test: Reduction of cellular 59Fe uptake from 59Fe-Transferrin in human SK-N-MC cells assessed as 59Fe level prelabeled with 59Fe2-Tf at 25 uM after 3 hrs relative to control; assay type: functional; parameters: scale not given: the % may be the effect or the level left
[9] = Toxicity in intact human RBC assessed as methemoglobin formation using Fe(compound)2 complex at 25 uM after 3 hrs relative to free ligand; conditions: erythrocyte
[10] = Toxicity in human RBC lysates assessed as methemoglobin formation at 25 uM after 3 hrs (reference value: 1.2 +/- 8%); assay type: cell-based, Lysate; conditions: erythrocyte

Structure (SMILES)	selectivity ratio [1]	IC50 (SK-N-MC [2]) [nM]	Activity [3]	Activity [4]	Activity [5]	Activity [6]	IC50 (MRC5) [nM]	Activity [7]	Activity (SK-N-MC [8]) [%]	fold change (FC) [9]	fold change (FC) [6]	Activity [10] [%]
CN(C)C(=S)N/N=C(\c1ccccc1)c1ccccn1	202	5	Not Active									
NC(=S)N/N=C(\c1ccccc1)c1ccccn1	> 3	3800	Active	Non-toxic	Non-toxic	Toxic	> 12500	Toxic				
CNC(=S)N/N=C(\c1ccc(C(C)(C)C)cc1)c1ccccn1	164	15		Non-toxic	Non-toxic	Non-toxic	2460	Non-toxic				
CC(C)(C)c1ccc(/C(=N\NC(=S)Nc2ccccc2)c2ccccn2)cc1	17	109		Non-toxic	Non-toxic	Non-toxic	1890	Non-toxic				
COc1ccc(/C(=N\NC(=S)Nc2ccccc2)c2ccccn2)cc1	45	19		Non-toxic	Non-toxic	Non-toxic	864	Non-toxic				
Cc1ccc(/C(=N\NC(=S)Nc2ccccc2)c2ccccn2)cc1	63	24		Non-toxic	Non-toxic	Non-toxic	1520	Non-toxic				
CN(C)C(=S)N/N=C(\c1ccc(C(C)(C)C)cc1)c1ccccn1	15	72	Not Active			Non-toxic	1070	Non-toxic				
COc1ccc(/C(=N\NC(=S)N(C)C)c2ccccn2)cc1	66	17	Not Active			Non-toxic	1140	Non-toxic	8			
Cc1ccc(/C(=N\NC(=S)N(C)C)c2ccccn2)cc1	131	7	Not Active			Non-toxic	921	Non-toxic	8			
CCNC(=S)N/N=C(\c1ccc(OC)cc1)c1ccccn1	102	16		Non-toxic	Non-toxic	Non-toxic	1650	Non-toxic	8			
CCNC(=S)N/N=C(\c1ccc(C(C)(C)C)cc1)c1ccccn1	147	20		Non-toxic	Non-toxic	Non-toxic	2940	Non-toxic				
CCNC(=S)N/N=C(\c1ccc(C)cc1)c1ccccn1	164	13		Non-toxic	Non-toxic	Non-toxic	2140	Non-toxic	8			
CNC(=S)N/N=C(\c1ccc(OC)cc1)c1ccccn1	92	22		Non-toxic	Non-toxic	Non-toxic	2030	Non-toxic	8			
CNC(=S)N/N=C(\c1ccc(C)cc1)c1ccccn1	141	15		Toxic	Toxic	Non-toxic	2120	Non-toxic	8			
CC(C)(C)c1ccc(/C(=N\NC(N)=S)c2ccccn2)cc1	58	14	Active	Non-toxic	Non-toxic	Non-toxic	814	Non-toxic				
Cc1ccc(/C(=N\NC(N)=S)c2ccccn2)cc1	> 85	146	Active	Toxic	Toxic	Toxic	> 12500	Toxic	8			
COc1ccc(/C(=N\NC(N)=S)c2ccccn2)cc1	> 3	3950	Active	Non-toxic	Non-toxic	Toxic	> 12500	Toxic	8			
CNC(=S)N/N=C(\c1ccccc1)c1ccccn1	116	20		Non-toxic	Non-toxic	Non-toxic		Non-toxic				
CN(C)C(=S)NN=C(c1ccccn1)c1ccccn1		7	Active						4	2.3	45	12
S=C(N/N=C(\c1ccccc1)c1ccccn1)Nc1ccccc1	36	16		Non-toxic	Non-toxic	Non-toxic	571	Non-toxic				
CCNC(=S)N/N=C(\c1ccccc1)c1ccccn1	106	14		Non-toxic	Non-toxic	Non-toxic	1490	Non-toxic				
CC(=O)N(O)CCCCCNC(=O)CCC(=O)N(O)CCCCCNC(=O)CCC(=O)N(O)CCCCCN [DEFEROXAMINE]									77			
NC(=S)N/N=C/c1ncccc1N [TRIAPINE]									54		38	17
